Assay [1] deals with T1, DDB1DB/DCAF15 and RBM39 R1R2 complex (Homo sapiens, UniProt Q14498+Q66K64).
T1 construct: Amino acids 150 to 331 of RBM39 were cloned into pGEX4T3; GST (from vector pGEX4T3); TEV cleavage site (N); made in house; host or cells: DDB1DB/His-DCAF15: baculovirus/Sf9 co-expression; RBM39 R1R2: E. coli (pGEX4T3)
The assay can be described thus: DCAF15 RBM39 Complex Formation Assay (FRET). The format is binding. The note with it: FRET ratio Em 665/Em 615, incubated overnight at 4° C. From the text:
LANCE Eu-W1024 Anti-6×His and SureLight Allophycocyanin-anti-FLAG antibodies were purchased from Perkin Elmer. Human DDB1DB and His-tagged DCAF15 were co-expressed in baculovirus/sf9 system. While full length DDB1 contains three 7-bladed propellers termed A, B, and C, DDB1DB has only propeller A (amino acids 1 to 395) and C (amino acids 709-1140). The His-tagged DCAF15 contains six histidine residues directly preceding the DCAF15 sequence without any linker. An RBM39 fragment containing RRM1 and RRM2 was expressed in E. coli. Amino acids 150 to 331 of RBM39 were cloned into pGEX4T3 with an N-terminal TEV cleavage site and a C-terminal FLAG tag.
A compound of the present disclosure in DMSO (2 μL) was transferred to a 384-well assay plate. Compound was added in 14 points, 3-fold serial dilution (1 μM to 0.6 pico molar) in DMSO. […] FRET assay buffer (25 mM HEPES, pH 7.5, 100 mM NaCl, […], 0.5 mM TCEP, 0.005% Tween-20, 0.2 nM Eu—W1024 Anti-6×His, 50 nM SureLight Allophycocyanin-anti-FLAG, 20 nM DDB1DB/DCAF15, 50 nM RBM39 R1R2) was added and the resulting solution was incubated overnight at 4° C. The plate was placed in a plate reader (Spark 10) with excitation at 1=340 nm and emissions monitored at 1=665 nm and 1=615 nm, and the FRET ratio (Em 665/Em 615) was determined. Low signal controls containing no compound and high signal controls containing 10 mM indisulam were measured for each plate.
EC50 values were calculated using Dotmatics template equation for 4-parameter fit. Results are expressed as % formation using the following equation: […]

Assay [2] has as its system HCT116 human colorectal carcinoma cells. The assay can be described thus: CellTiter-Glo Luminescent Cell Viability Assay. Format: cell-based. The note with it: HCT-116, 72 h, 3 days. How it is done:
HCT116 human colorectal carcinoma cells were used in these experiments. HCT116 cells were obtained from ATCC. CellTiter-Glo® Luminescent Cell Viability Assay Reagent was obtained from Promega.
About 3,000 cells were seeded into 96-well plate with […] of media (DMEM supplemented with 10% FBS, 100 units penicillin, and […] streptomycin per mL) the day before the experiment. For compound treatment, the master plate was prepared as follows: 100× compound stocks were prepared in a 96-well plate by 1 to 3 serial dilutions of 0.5 mM DMSO stocks. Each master plate contained serial dilution of 8 compounds, including the control compound E7820. […] of 100× compound stock was added to each well of the assay plate to give final concentrations of […]. Each concentration was tested in triplicate. After 3 days, cell viability was determined using CellTiter-Glo Luminescent Cell Viability Assay Reagent following the manufacturer's recommended protocol. Briefly, […] of CellTiter-Glo reagent was added to each well of the assay plate and the contents were mixed for 3 minutes at 600 rpm on a shaker (Thermomixer R). The plate was immediately placed in a plate reader (Synergy 2) and the luminescence signal (0.5 second per well integration time) was determined. IC50 values were calculated using Dotmatics software.

T1 sequence (Q66K64 whole entry, the tested form may be a part): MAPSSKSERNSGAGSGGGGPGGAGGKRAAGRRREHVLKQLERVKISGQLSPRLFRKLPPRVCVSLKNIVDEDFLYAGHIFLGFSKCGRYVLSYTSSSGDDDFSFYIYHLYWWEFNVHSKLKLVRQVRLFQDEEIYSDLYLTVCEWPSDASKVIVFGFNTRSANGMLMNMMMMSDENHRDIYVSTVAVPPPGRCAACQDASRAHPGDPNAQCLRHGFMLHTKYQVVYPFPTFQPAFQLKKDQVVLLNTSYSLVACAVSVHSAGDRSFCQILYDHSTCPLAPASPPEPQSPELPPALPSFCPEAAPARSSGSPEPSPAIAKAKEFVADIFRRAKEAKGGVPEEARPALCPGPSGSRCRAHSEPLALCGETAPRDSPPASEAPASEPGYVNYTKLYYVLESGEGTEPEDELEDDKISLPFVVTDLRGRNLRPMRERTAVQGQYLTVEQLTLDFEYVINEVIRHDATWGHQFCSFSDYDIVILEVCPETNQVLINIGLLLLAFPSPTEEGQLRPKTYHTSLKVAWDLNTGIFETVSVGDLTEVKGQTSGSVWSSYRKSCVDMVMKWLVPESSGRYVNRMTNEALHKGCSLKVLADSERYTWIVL
T1 sequence (Q14498 150-331): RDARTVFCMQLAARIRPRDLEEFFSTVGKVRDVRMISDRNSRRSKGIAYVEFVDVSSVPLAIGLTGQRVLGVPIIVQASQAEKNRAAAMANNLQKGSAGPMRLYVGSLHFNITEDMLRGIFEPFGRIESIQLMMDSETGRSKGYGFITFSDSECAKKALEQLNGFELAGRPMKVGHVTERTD
T1 sequence (Q16531 with tags, fused parts or gaps DEL396-708 partner): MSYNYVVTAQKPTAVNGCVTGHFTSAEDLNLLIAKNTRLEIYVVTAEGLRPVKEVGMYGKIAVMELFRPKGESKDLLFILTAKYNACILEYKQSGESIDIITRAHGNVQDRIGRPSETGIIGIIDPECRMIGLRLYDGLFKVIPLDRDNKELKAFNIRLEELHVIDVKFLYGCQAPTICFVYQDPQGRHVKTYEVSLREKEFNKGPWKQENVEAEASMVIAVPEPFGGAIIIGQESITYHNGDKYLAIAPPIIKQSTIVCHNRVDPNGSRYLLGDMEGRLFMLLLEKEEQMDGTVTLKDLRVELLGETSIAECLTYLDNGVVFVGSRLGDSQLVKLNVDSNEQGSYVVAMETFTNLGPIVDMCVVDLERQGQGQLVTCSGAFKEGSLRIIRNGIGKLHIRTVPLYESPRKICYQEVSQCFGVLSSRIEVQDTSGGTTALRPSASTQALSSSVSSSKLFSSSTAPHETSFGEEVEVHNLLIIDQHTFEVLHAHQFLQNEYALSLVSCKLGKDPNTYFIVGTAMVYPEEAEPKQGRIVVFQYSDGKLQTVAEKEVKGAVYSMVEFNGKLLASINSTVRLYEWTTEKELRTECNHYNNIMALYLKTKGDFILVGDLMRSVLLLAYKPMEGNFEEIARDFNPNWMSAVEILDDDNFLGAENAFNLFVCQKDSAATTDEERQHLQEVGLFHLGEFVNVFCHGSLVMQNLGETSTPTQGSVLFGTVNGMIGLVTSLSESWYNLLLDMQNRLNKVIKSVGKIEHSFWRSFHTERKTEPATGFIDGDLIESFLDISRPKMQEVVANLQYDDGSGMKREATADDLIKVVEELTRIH

As to `Cc1ccc(NS(=O)(=O)c2cnn([C@H]3C[C@@H](O)C3)c2)c2[nH]cc(C#N)c12` [Compound 193, N-(3-cyano-4-methyl-1H-indol-7-yl)-1-(3-hydroxycyclobutyl)pyrazole-4-sulfonamide], the IC50 in assay [1] is less than 250 nM. In assay [2], the EC50 was 250 to 1000 nM.

`N#CCCn1cc(S(=O)(=O)Nc2cccc3c(Cl)c[nH]c23)cn1` [Compound 59, N-(3-chloro-1H-indol-7-yl)-1-(2-cyanoethyl)pyrazole-4-sulfonamide]: in assay [1], the IC50 was less than 250 nM. In addition, in assay [2], the EC50 is less than 250 nM.

On to `Cc1ccc(NS(=O)(=O)c2cnn(C(C)(F)CO)c2)c2[nH]cc(C#N)c12` (centres unmarked) [Compound 293, N-(3-cyano-4-methyl-1H-indol-7-yl)-1-(1-fluoro-2-hydroxy-1-methyl-ethyl)pyrazole-4-sulfonamide], for which, in assay [1], the IC50 was less than 250 nM. Besides, in assay [2], the EC50 was in the range of 250 to 1000 nM.

For `N#Cc1c[nH]c2c(NS(=O)(=O)c3cnn(C(F)F)c3)ccc(Cl)c12` [Compound 119, N-(4-chloro-3-cyano-1H-indol-7-yl)-1-(difluoromethyl)pyrazole-4-sulfonamide], the IC50 in assay [1] was less than 250 nM. For the same compound, the half-maximal effective concentration (EC50) in assay [2] was less than 250 nM.

For `Cc1ccc(NS(=O)(=O)c2cnn(CC3CCC3)c2)c2[nH]cc(C#N)c12` [Compound 78, N-(3-cyano-4-methyl-1H-indol-7-yl)-1-(cyclobutylmethyl)pyrazole-4-sulfonamide], in assay [1], the IC50 is less than 250 nM. In addition, the EC50 in assay [2] lay within 250 to 1000 nM.

As for `Cc1ccc(NS(=O)(=O)c2cnn([C@H]3CNC[C@H]3F)c2)c2[nH]cc(C#N)c12` [Compound 151, N-(3-cyano-4-methyl-1H-indol-7-yl)-1-[(3S,4R)-4-fluoropyrrolidin-3-yl]pyrazole-4-sulfonamide], in assay [1], the IC50 is less than 250 nM. Further, the EC50 in assay [2] was greater than 1000 nM.

As for `Cc1ccc(NS(=O)(=O)c2cnn(CC(N)=O)c2)c2[nH]cc(C#N)c12` [Compound 141, 2-[4-[(3-cyano-4-methyl-1H-indol-7-yl)sulfamoyl]pyrazol-1-yl]acetamide], in assay [1], the IC50 is less than 250 nM. The EC50 in assay [2] is greater than 1000 nM.

With `Cc1ccc(NS(=O)(=O)c2cnn(CCF)c2)c2[nH]cc(C#N)c12` [Compound 36, N-(3-cyano-4-methyl-1H-indol-7-yl)-1-(2-fluoroethyl)pyrazole-4-sulfonamide], the IC50 in assay [1] was less than 250 nM. Also, the EC50 in assay [2] is less than 250 nM.

In the case of `Cc1ccc(NS(=O)(=O)c2cnn([C@@H](CO)CF)c2)c2[nH]cc(C#N)c12` [Compound 246, N-(3-cyano-4-methyl-1H-indol-7-yl)-1-[(1S)-1-(fluoromethyl)-2-hydroxy-ethyl]pyrazole-4-sulfonamide], the IC50 in assay [1] is less than 250 nM. The EC50 in assay [2] lay in the range of 250 to 1000 nM.

Turning to `Cc1ccc(NS(=O)(=O)c2cnn([C@H](C)[C@H](C)O)c2)c2[nH]cc(C#N)c12` [Compound 274, N-(3-cyano-4-methyl-1H-indol-7-yl)-1-[(1R,2S)-2-hydroxy-1-methyl-propyl]pyrazole-4-sulfonamide], in assay [1], the IC50 was less than 250 nM. The EC50 in assay [2] is less than 250 nM.

`CC(C)(O)Cn1cc(S(=O)(=O)Nc2ccc(F)c3c(C#N)c[nH]c23)cn1` [Compound 192, N-(3-cyano-4-fluoro-1H-indol-7-yl)-1-(2-hydroxy-2-methyl-propyl)pyrazole-4-sulfonamide]: the IC50 in assay [1] was less than 250 nM. For the same compound, the EC50 in assay [2] is greater than 1000 nM.

With `CC(CCO)n1cc(S(=O)(=O)Nc2ccc(Cl)c3c(C#N)c[nH]c23)cn1` (centres unmarked) [Compound 237, N-(4-chloro-3-cyano-1H-indol-7-yl)-1-(3-hydroxy-1-methyl-propyl)pyrazole-4-sulfonamide], the IC50 in assay [1] was less than 250 nM. Moreover, the EC50 in assay [2] was less than 250 nM.

`O=S(=O)(Nc1cccc2c(Cl)c[nH]c12)c1cnn(C(F)F)c1` [Compound 6, N-(3-chloro-1H-indol-7-yl)-1-(difluoromethyl)pyrazole-4-sulfonamide]: the IC50 in assay [1] was less than 250 nM. For the same compound, the EC50 in assay [2] was in the range of 250 to 1000 nM.

As for `Cc1ccc(NS(=O)(=O)c2cnn(S(=O)(=O)CF)c2)c2[nH]cc(C#N)c12` [Compound 100, N-(3-cyano-4-methyl-1H-indol-7-yl)-1-(fluoromethylsulfonyl)pyrazole-4-sulfonamide], the IC50 in assay [1] is less than 250 nM. Further, in assay [2], the 50% effective concentration (EC50) lay within 250 to 1000 nM.

On to `N#Cc1c[nH]c2c(NS(=O)(=O)c3cnn(CC4(CO)CC4)c3)ccc(Cl)c12` [Compound 195, N-(4-chloro-3-cyano-1H-indol-7-yl)-1-[[1-(hydroxymethyl)cyclopropyl]methyl]pyrazole-4-sulfonamide], for which the IC50 in assay [1] was less than 250 nM. Moreover, the EC50 in assay [2] lay within 250 to 1000 nM.

With `CNC(=O)Cn1cc(S(=O)(=O)Nc2ccc(C)c3c(C#N)c[nH]c23)cn1` [Compound 139, 2-[4-[(3-cyano-4-methyl-1H-indol-7-yl)sulfamoyl]pyrazol-1-yl]-N-methyl-acetamide], in assay [1], the IC50 was less than 250 nM. The EC50 in assay [2] is greater than 1000 nM.

Regarding `CCn1cc(S(=O)(=O)Nc2ccc(F)c3c(C#N)c[nH]c23)c(N)n1` [Compound 291, 3-amino-N-(3-cyano-4-fluoro-1H-indol-7-yl)-1-ethyl-pyrazole-4-sulfonamide], in assay [1], the IC50 is less than 250 nM. In addition, the EC50 in assay [2] fell in the range of 250 to 1000 nM.

For `Cc1ccc(NS(=O)(=O)c2cnn(CCCF)c2)c2[nH]cc(C#N)c12` [Compound 73, N-(3-cyano-4-methyl-1H-indol-7-yl)-1-(3-fluoropropyl)pyrazole-4-sulfonamide], the IC50 in assay [1] was less than 250 nM. In addition, the EC50 in assay [2] was less than 250 nM.

For `N#Cc1c[nH]c2c(NS(=O)(=O)c3cnn([C@@H](CO)C(F)F)c3)ccc(F)c12` [Compound 228, N-(3-cyano-4-fluoro-1H-indol-7-yl)-1-[(1S)-2,2-difluoro-1-(hydroxymethyl)ethyl]pyrazole-4-sulfonamide], the IC50 in assay [1] is less than 250 nM. Besides, the EC50 in assay [2] is greater than 1000 nM.

With `O=S(=O)(Nc1cccc2c(Cl)c[nH]c12)c1cnn(C2CC(O)C2)c1` (centres unmarked) [Compound 83, N-(3-chloro-1H-indol-7-yl)-1-(3-hydroxycyclobutyl)pyrazole-4-sulfonamide], the IC50 in assay [1] is less than 250 nM. Further, the EC50 in assay [2] was 250 to 1000 nM.

For the compound `Cc1ccc(NS(=O)(=O)c2cn[nH]c2)c2[nH]cc(C#N)c12` [Compound 62, N-(3-cyano-4-methyl-1H-indol-7-yl)-1H-pyrazole-4-sulfonamide], the half-maximal inhibitory concentration (IC50) in assay [1] is less than 250 nM. Further, in assay [2], the EC50 fell in the range of 250 to 1000 nM.

In the case of `Cc1ccc(NS(=O)(=O)c2cn(C(C)(C)CO)nc2Cl)c2[nH]cc(C#N)c12` [Compound 252, 3-chloro-N-(3-cyano-4-methyl-1H-indol-7-yl)-1-(2-hydroxy-1,1-dimethyl-ethyl)pyrazole-4-sulfonamide], in assay [1], the IC50 was less than 250 nM. For the same compound, the EC50 in assay [2] was 250 to 1000 nM.

In the case of `[2H]C([2H])([2H])n1cc(S(=O)(=O)Nc2ccc(C)c3c(C#N)c[nH]c23)cn1` [Compound 110, N-(3-Cyano-4-methyl-1H-indol-7-yl)-1-(trideuteriomethyl)pyrazole-4-sulfonamide], the IC50 in assay [1] was less than 250 nM. Also, the EC50 in assay [2] fell in the range of 250 to 1000 nM.

In the case of `CC(C)(O)Cn1cc(S(=O)(=O)Nc2ccc(F)c3c(C#N)c[nH]c23)c(F)n1` [Compound 206, N-(3-cyano-4-fluoro-1H-indol-7-yl)-3-fluoro-1-(2-hydroxy-2-methyl-propyl)pyrazole-4-sulfonamide], the IC50 in assay [1] was less than 250 nM. Moreover, in assay [2], the EC50 was greater than 1000 nM.

With `N#Cc1c[nH]c2c(NS(=O)(=O)c3cnn(CC(F)F)c3)ccc(F)c12` [Compound 92, N-(3-cyano-4-fluoro-1H-indol-7-yl)-1-(2,2-difluoroethyl)pyrazole-4-sulfonamide], the IC50 in assay [1] was less than 250 nM. Also, the EC50 in assay [2] fell in the range of 250 to 1000 nM.

These data come from patent US20250368627A1, “PYRAZOLESULFONAMIDES AS ANTITUMOR AGENTS” (Peloton Therapeutics, Inc., a fully owned subsidiary of …, priority 2019, published 2025).
